# Experimental data taken from PubChem BioAssay AID458.
# Molecular target: NAD-dependent protein deacylase sirtuin-5, mitochondrial (Homo sapiens) (UniProt Q9NXA8)
# Assay: SIRT5 thermal stabilisation by ligands, biophysical, StarGazer light scattering (AID 458)
# Conditions: at 1 mM, protein 12 µM, stronger effect = higher value
# Chain of NAD-dependent protein deacylase sirtuin-5, mitochondrial (Homo sapiens) (Q9NXA8 whole entry, looked up): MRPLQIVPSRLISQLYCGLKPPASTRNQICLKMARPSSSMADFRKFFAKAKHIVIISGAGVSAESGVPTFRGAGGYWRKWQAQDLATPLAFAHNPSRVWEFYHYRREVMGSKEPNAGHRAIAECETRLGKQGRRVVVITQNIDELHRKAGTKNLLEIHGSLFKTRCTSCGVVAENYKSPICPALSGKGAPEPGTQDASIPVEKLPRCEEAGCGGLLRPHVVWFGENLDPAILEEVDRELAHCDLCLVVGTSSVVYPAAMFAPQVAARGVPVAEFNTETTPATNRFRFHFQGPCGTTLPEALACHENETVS
row,Tagg shift [°C],SMILES
1,5.1,CC(/C=C/C(=O)NO)=C\[C@@H](C)C(=O)c1ccc(N(C)C)cc1
2,27,Cc1ccc(C(=O)Nc2ccc(S(=O)(=O)O)c3cc(S(=O)(=O)O)cc(S(=O)(=O)O)c23)cc1NC(=O)c1cccc(NC(=O)Nc2cccc(C(=O)Nc3cc(C(=O)Nc4ccc(S(=O)(=O)O)c5cc(S(=O)(=O)O)cc(S(=O)(=O)O)c45)ccc3C)c2)c1
